Laboratory results from patent publication US20110318375A1, “Immunomodulatory Therapeutic Agents” (priority 2009, published 2011).

How the values were obtained:
[1] = tested on: Experimental Allergic Encephalomyelitis (EAE); assay: Acute Experimental Allergic Encephalomyelitis mouse model; assay type: in vivo, mice; conditions: daily, subcutaneous; recovery after day 22, worsened on days 27 and 28; p<0.1
Text: The carboxy terminus of activated Fibrinopeptide A was considered to be the active portion of the peptide, the carboxy terminus was PEGylate (addition of Poly Ethylene Glycol). This molecule was used to perform an EAE study. This study was designed to mimic the study done by Ruhenstroth-Bauer in 1981 utilizing two of these peptides, and showing some albeit mild benefit. The synthetic PEGylated peptide was expected to perform considerably better than the non-PEGylated peptide. Synthetic non-PEGylated peptide A was used as a positive control to compare the PEGylated verses non-PEGylated peptides. The medications were administered subcutaneously, due to this route having some efficacy in the cytokine profiles.
Test article 2 (PEGylated peptide) dosed daily, every 3 days and weekly never even approached statistically significant benefit.
During the first 22 days of the study EAE development in mice treated with test article 1 (daily non-PEGylated peptide A) was very similar to the vehicle-treated mice. […] Disease worsened in test article 1-treated mice on days 27 and 28 and became very similar to disease severity to the mice in the vehicle-treated group.

[2] = tested on: Ponto Toro Virus; assay type: in vivo, mice; conditions: Ponto Toro infection, one dose; placebo group 25% survived
[3] = tested on: mouse antibody IgE; conditions: cited from earlier work
[4] = tested on: Cytokine 12 Panel; assay: Cytokine 12 panel, oral daily dosing with 3 mg Fibrinopeptide A (Table 5); assay type: in vivo, human; parameters: IL-10 / TNF-α / IL-2 / IL-12: unit not given here; conditions: for IFN-γ / IL-4 / IL-5 / IL-6 / IL-8 / IL-13: nl: 0-5; for IL-12: nl: 0-6; for IL-2: nl: 0-12; for IL-10: nl: 0-18; for TNF-α: nl: 0-22; for IL-1β: nl: 0-36; for IL-2R: nl: 0-1033
Text: [table] […] One of these patients was the same patient previously utilized, while the other was relatively neve to any previous Fibrinopeptide A treatment. The patient had taken two doses orally approximately seven weeks prior to this treatment, no lab work had been obtained with this prior dosing. […] Note the response in the IL-10 and IL-1b in this patient similar to the other patients. However, this patient return back toward baseline values much more rapidly than the other patients, accentuating the variability expected in this type of response from one patient to another. This also validates the efficacy of oral administration to achieve an anti-inflammatory/immunomodulatory benefit.

[5] = tested on: Cytokine 12 Panel; assay: Cytokine 12 panel after oral peptide preparation taken daily for two weeks; assay type: in vivo, human; conditions: Pre: prior to the IV dose, 4 weeks after oral dosing
Text: Peptide was suspended in an appropriate medium and a healthy volunteer took the preparation daily for two weeks, drawing blood for a cytokine 12 panel every five days. Due to the size of the molecules absorption from the mucosal route seemed unlikely, and the rapid digestion of peptides in the stomach would eliminate their efficacy in a true oral route. This same healthy volunteer had lab work drawn right before receiving an IV dose of synthetic Fibrinopeptide A. The IV dose was expected to have a more profound therapeutic effect, since treatment was simulating a normal intravascular biologic process. […] (Table 3). [table]

Sequence: ADSGEGDFLAEGGGV (listed as Homo sapiens) [Fibrinopeptide A]
- difference in disease severity versus vehicle-treated mice [1]: did not reach statistical significance
- mice that lived (overall survivability) [2]: 60%
- deglycosylation of IgE [3]: deglycosylates mouse antibody IgE
- IFN-γ ([4]; Off 1 Week): 5
- IL-4 ([4]; Off 1 Week): <5
- IL-5 ([4]; Off 1 Week): 5
- IL-6 ([4]; Off 1 Week): 5
- IL-8 ([4]; Off 1 Week): 8
- IL-13 ([4]; Off 1 Week): 8
- IL-12 ([4]; Off 1 Week): 6
- IL-2 ([4]; Off 1 Week): 6
- IL-10 ([4]; Off 1 Week): 28
- TNF-α ([4]; Off 1 Week): <5
- IL-1β ([4]; Off 1 Week): <5
- IL-2R ([4]; Off 1 Week): 147
- elevation of Interleukin-13 ([4]; giving just Fibrinopeptide A): does not result in an elevation
- IFN-γ ([4]; oral daily 3 mg, 1 Week): <5
- IL-4 ([4]; oral daily 3 mg, 1 Week): <5
- IL-5 ([4]; oral daily 3 mg, 1 Week): <5
- IL-6 ([4]; oral daily 3 mg, 1 Week): <5
- IL-8 ([4]; oral daily 3 mg, 1 Week): <5
- IL-13 ([4]; oral daily 3 mg, 1 Week): <5
- IL-12 ([4]; oral daily 3 mg, 1 Week): <5
- IL-2 ([4]; oral daily 3 mg, 1 Week): <5
- IL-10 ([4]; oral daily 3 mg, 1 Week): 137
- TNF-α ([4]; oral daily 3 mg, 1 Week): <5
- IL-1β ([4]; oral daily 3 mg, 1 Week): 30
- IL-2R ([4]; oral daily 3 mg, 1 Week): 423
- IFN-γ ([5]; nl: 0-5): <5
- IL-4 ([5]; nl: 0-5): <5
- IL-5 ([5]; nl: 0-5): <5
- IL-6 ([5]; nl: 0-5): 13
- IL-8 ([5]; nl: 0-5): <5
- IL-12 ([5]; nl: 0-6): <5
- IL-2 ([5]; nl: 0-12): <5
- IL-10 ([5]; nl: 0-18): 96
- TNF-α ([5]; nl: 0-22): <5
- IL-1β ([5]; nl: 0-36): 52
- IL-2R ([5]; nl: 0-1033): 550
